These results are taken from US4667032A, “Phenothiazone derivatives and analogs” (Merck Frosst Canada, Inc., priority 1985, dated 1987).

One experiment concerns the target T1, 5-Lipoxygenase (Rattus norvegicus, UniProt P12527).
T1 construct: Rat basophilic leukemia (RBL-1) cells were sonicated and centrifuged at 125000 xg; endogenous in cells; host or cells: RBL-1 (rat basophilic leukemia) cells, 125000 xg supernatant of sonicate
T1 sequence (P12527 1-673): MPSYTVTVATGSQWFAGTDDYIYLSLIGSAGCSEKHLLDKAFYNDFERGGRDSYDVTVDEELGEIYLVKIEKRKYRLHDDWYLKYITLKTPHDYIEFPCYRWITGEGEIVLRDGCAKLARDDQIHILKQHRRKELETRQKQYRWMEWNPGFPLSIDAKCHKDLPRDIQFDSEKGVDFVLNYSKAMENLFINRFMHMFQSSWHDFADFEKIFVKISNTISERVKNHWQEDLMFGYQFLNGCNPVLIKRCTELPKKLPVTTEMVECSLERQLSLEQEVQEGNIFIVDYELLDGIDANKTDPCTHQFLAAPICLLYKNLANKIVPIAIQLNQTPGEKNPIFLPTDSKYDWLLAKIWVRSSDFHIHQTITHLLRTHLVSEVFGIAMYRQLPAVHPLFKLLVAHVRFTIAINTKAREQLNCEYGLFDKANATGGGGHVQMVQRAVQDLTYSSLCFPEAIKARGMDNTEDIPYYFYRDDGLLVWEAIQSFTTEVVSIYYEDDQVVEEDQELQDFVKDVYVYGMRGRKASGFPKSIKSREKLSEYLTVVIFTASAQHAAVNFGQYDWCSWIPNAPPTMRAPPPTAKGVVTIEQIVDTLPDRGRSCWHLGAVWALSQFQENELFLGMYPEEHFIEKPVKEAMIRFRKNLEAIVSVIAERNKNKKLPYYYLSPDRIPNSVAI
As to the kind of experiment: RBL-1 5-Lipoxygenase. The experiment is classed as biochemical. As to conditions: for IC50: Table 4, first part. The method, then:
Rat basophilic leukemia (RBL-1) cells were sonicated and centrifuged at 125000 xg. The resulting supernatant fraction was incubated with arachidonic acid (labelled with ^14 C) to convert a portion of it to ^14 C-5(S)-hydroxyicosatetraenoic acid (5-HETE). Compounds being evaluated as inhibitors of 5-Lipoxygenase were added prior to the addition of arachidonic acid. 5-HETE was isolated by extraction and paper chromatography, and quantitated by determining the amount of radioactivity (cpm) associated with 5-HETE.
Reference: Egan, R. W., Tischler, A. M. Baptista, E. H., Ham, E. A., Soderman, D. D., and Gale, P. H., Advances in Prostaglandin, Thromboxane and Leukotriene Research 11 151 (1983), (Samuelson, B., Ramwell, P. W., and Paoletti, R. (eds.), Raven Press, N.Y.

The subject of experiment [1] is Mouse peritoneal macrophages. Briefly: Mouse Macrophage Assay (leukotriene C4 / PGE2 / 6-keto PGF1α formation, zymosan stimulated). Format: cell-based. As to conditions: Table 4, first part. The method, then:
Mouse peritoneal macrophages were treated sequentially with arachidonic acid (labelled with tritium); the compound being evaluated as an inhibitor, and a stimulator (zymosan). Metabolites derived from arachidonic acid PGE2 6-keto PH-F1α and leukotriene C4) were separated from the incubation medium by extraction and chromatography, and then quantitated by determining the amount of radioactivity (cpm) associated with each of them. […] (This protocol is identical to that described in the reference except that the radioactivity herein associated with the LTC4 was determined by counting an aliquot of the final aqueous solution directly rather than chromatographing it first).
Reference: Humes, J. L. et al., J. Biol. Chem. 257, 1591-4, (1982).

The test system of experiment [2] is tracheal chain of sensitized guinea pigs. Briefly: Antigen Challenge 'in vitro' Assay (egg albumin contraction of sensitized guinea pig tracheal chain). The procedure:
Male guinea pigs weighing 300-350 g were sensitized by injecting (I.P.) 0.5 ml of a suspension containing 0.4 mg of egg albumin (Ovalbumin, Grade V, Sigma Chemical Co.) and 4.0 g aluminum hydroxide in 19.6 ml of saline. Two weeks were permitted for sensitization to occur.
Three sensitized guinea pigs were stunned and exsanguinated. The tracheas were removed, freed of adhering tissue and divided longitudinally by cutting through the cartilaginous tissue directly opposite the muscle insertion. Each opened trachea was then transected between every second cartilage. Four of the cut sections were tied together, end to end, in a series with No. 7 silk thread ensuring that the tracheal muscles were all in the same vertical plane. Thus, each chain consisted of tissue from three different animals.
The chain so formed was then suspended under 1 g of tension (by silk ties at each end) in a 20 ml organ bath containing 10 ml of modified* Krebs-Henseleit buffer solution gassed with 95% O2 and 5% CO2 at 37° C. Mepyramine (0.55 μg/ml) and indomethacin (2.67 μg/ml) were added to the buffer to avoid the contribution of histamine receptors and cyclooxygenase products to the contraction. To record responses one end of the tracheal chain was attached to a Gould-Statham UC-2 force displacement transducer which was connected to a Beckman Type R-dynograph.The preparations were allowed to equilibrate for one hour during which time the tissues were automatically washed (10 ml volume displacement) every 6 minutes.
After the equilibration period the tissues were primed with methacholine (3 μg/ml; 1.5×10^-5 M), washed and allowed to recover to baseline. The tissues were treated again with a second dose of methacholine, washed, allowed to return to baseline and washed for an additional hour.
Two chains were used as a control. These were incubated in a concentration of egg albumin sufficient to induce an average contraction of 50-80% of the methacholine response.
Each compound to be tested was added to two other baths (at a final concentration in each bath of 10 μg/ml) 15 minutes prior to challenging the fresh chains with egg albumin.
The response of the challenged tissue was expressed as a percentage of the methacholine maximum. The % inhibition for each compound was then calculated. Compounds which at 10 μg/ml (final conc.) inhibited the egg albumin response by 50% or more were retested at a lower concentration.

SMILES strings stand for the structures. ≈ marks a conversion by molar mass, not a printed value.

Regarding `O=c1c(Cl)cc2nc3ccccc3sc-2c1Cl` [Test No. 5], the inhibition at 0.05 µg/mL at 5-Lipoxygenase (at 0.05 μg/ml, read-out: RBL-1, % at stated concentration) came out at 65%.
The IC50 is the concentration that inhibits the measured activity by half. A high value points to a need for much substance. As to `O=c1ccc2nc3ccccc3sc-2c1` [Test No. 4], the IC50 is 46.9 nM at 5-Lipoxygenase and 0.1 µg/mL (≈ 0.469 µM) in experiment [1]. The “In Vitro Antigen Challenge Test % Inhibition” value in experiment [2] (0.3 μg (μg/ml)) amounted to 42%; in experiment [2] (1 μg (μg/ml)) it was 77%; in experiment [2] (10 μg (μg/ml)) it was 100%.
Consider `O=c1ccc2nc3ccccc3sc-2c1Cl` [drawing 26], for which the 50% inhibitory concentration (IC50) against 5-Lipoxygenase was 40.4 nM; in experiment [1], 0.2 µg/mL (≈ 0.807 µM). Besides, the figures for the “In Vitro Antigen Challenge Test % Inhibition” value in experiment [2] (1 μg (μg/ml)) and in experiment [2] (10 μg (μg/ml)) were 44% and 100%, respectively.
